Reference: US8618303B2, “Pyrrolidine derivatives” (Hoffmann-La Roche Inc., priority 2011, dated 2013)

target: human NK3 receptor (Homo sapiens (Human), UniProt P29371); test: [3H]SR142801 competition binding assay; conditions: not given
Method: hNK3 receptor binding experiment were performed using [^3H]SR142801 (Catalog No. TRK1035, specific activity: 74.0 Ci/mmol, Amersham, GE Healthcare UK limited, Buckinghamshire, UK) and membrane isolated from HEK293 cells transiently expressing recombinant human NK3 receptor. After thawing, the membrane homogenates were centrifuged at 48,000×g for 10 min at 4° C., the pellets were resuspended in the 50 mM Tris-HCl, 4 mM MnCl2, 1 μM phosphoramidon, 0.1% BSA binding buffer at pH 7.4 to a final assay concentration of 5 μg protein/well. […] At the end of the incubation, membranes were filtered onto unitfilter (96-well white microplate with bonded GF/C filter preincubated 1 h in 0.3% PEI+0.3% BSA, Packard BioScience, Meriden, Conn.) with a Filtermate 196 harvester (Packard BioScience) and washed 4 times with ice-cold 50 mM Tris-HCl, pH 7.4 buffer. Nonspecific binding was measured in the presence of 10μM SB222200 for both radioligands. The radioactivity on the filter was counted (5 min) on a Packard Top-count microplate scintillation counter with quenching correction after addition of 45 μl of microscint 40 (Canberra Packard S.A., Ziirich, Switzerland) and shaking for 1 h. Inhibition curves were fitted according to the Hill equation: y=100/(1+(x/IC50), where nH=slope factor using Excel-fit 4 software (Microsoft). IC50 values were derived from the inhibition curve and the affinity constant (Ki) values were calculated using the Cheng-Prussoff equation Ki =IC50/(1+[L]/KD) where [L] is the concentration of radioligand and KD is its dissociation constant at the receptor, derived from the saturation isotherm. All experiments were performed in duplicate and the mean±standard error (SEM) of the individual Ki values was calculated.

Chain of human NK3 receptor (P29371 whole entry): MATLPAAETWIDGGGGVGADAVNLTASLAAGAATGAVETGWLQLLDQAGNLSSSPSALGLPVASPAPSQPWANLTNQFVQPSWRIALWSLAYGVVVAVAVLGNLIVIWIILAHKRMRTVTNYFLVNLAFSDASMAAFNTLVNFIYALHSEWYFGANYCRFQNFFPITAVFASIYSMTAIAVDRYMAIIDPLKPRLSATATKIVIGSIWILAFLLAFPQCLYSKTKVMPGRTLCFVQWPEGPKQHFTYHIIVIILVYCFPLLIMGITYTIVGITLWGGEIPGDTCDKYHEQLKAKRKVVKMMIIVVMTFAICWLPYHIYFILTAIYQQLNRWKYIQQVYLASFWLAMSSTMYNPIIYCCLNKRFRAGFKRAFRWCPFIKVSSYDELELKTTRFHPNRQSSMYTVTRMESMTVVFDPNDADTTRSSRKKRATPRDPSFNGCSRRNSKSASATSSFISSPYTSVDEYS

Compound	Ki [µM]
CN(C(=O)Oc1ccc(F)cc1)[C@@]1(C)CN(C(=O)c2ccc(-c3ccc(F)cc3)cc2)C[C@@H]1c1ccc(Cl)cc1 (racemic) [Example 16, rac-[(3R,4S)-4-(4-Chloro-phenyl)-1-(4′-fluoro-biphenyl-4-carbonyl)-3-methyl-pyrrolidin-3-yl]-methyl-carbamic acid 4-fluoro-phenyl ester]	0.3
CN(C(=O)Oc1ccc(F)cc1)[C@@]1(C)CN(C(=O)C2CCN(c3ccc(F)cn3)CC2)C[C@@H]1c1ccc(Cl)cc1 (racemic) [Example 12, rac-[(3R,4S)-4-(4-Chloro-phenyl)-1-(5′-fluoro-3,4,5,6-tetrahydro-2H-[1,2′]bipyridinyl-4-carbonyl)-3-methyl-pyrrolidin-3-yl]-methyl-carbamic acid 4-fluoro-phenyl ester]	0.0076
CN(C(=O)Oc1ccc(F)cc1)[C@@H]1CN(C(=O)C2CCN(C(=O)C3(C)CC3)CC2)C[C@@]1(C)c1ccc(Cl)cc1 (racemic) [Example 21, rac-{(3S,4R)-4-(4-Chloro-phenyl)-4-methyl-1-[1-(1-methyl-cyclopropanecarbonyl)-piperidine-4-carbonyl]-pyrrolidin-3-yl}-methyl-carbamic acid 4-fluoro-phenyl ester]	0.0319
CC(=O)c1ccc(N2CCC(C(=O)N3C[C@@H](N(C)C(=O)Oc4ccc(F)cc4)[C@](C)(c4ccc(Cl)cc4)C3)CC2)nc1 (racemic) [Example 31, rac-[(3S,4R)-1-(5′-Acetyl-3,4,5,6-tetrahydro-2H-[1,2′]bipyridinyl-4-carbonyl)-4-(4-chloro-phenyl)-4-methyl-pyrrolidin-3-yl]-methyl-carbamic acid 4-fluoro-phenyl ester]	0.0081

same assay, conditions: membranes from HEK293 cells transiently expressing recombinant human NK3 receptor; [3H]SR142801; Ki from IC50 by Cheng-Prussoff; read-out: Ki (uM) hNK3

Compound	Ki [µM]
CC(=O)N1CCC(C(=O)N2C[C@@H](N(C)C(=O)Oc3ccc(F)cc3)[C@](C)(c3ccc(Cl)cc3)C2)CC1 (racemic) [Example 27, rac-[(3S,4R)-1-(1-Acetyl-piperidine-4-carbonyl)-4-(4-chloro-phenyl)-4-methyl-pyrrolidin-3-yl]-methyl-carbamic acid 4-fluoro-phenyl ester]	0.051
CN(C(=O)Oc1ccc(F)cc1)[C@@H]1CN(C(=O)C2CCN(c3ccc(Cl)cn3)CC2)C[C@@]1(C)c1ccc(Cl)cc1 (racemic) [Example 32, rac-[(3S,4R)-4-(4-Chloro-phenyl)-1-(5′-chloro-3,4,5,6-tetrahydro-2H-[1,2′]bipyridinyl-4-carbonyl)-4-methyl-pyrrolidin-3-yl]-methyl-carbamic acid 4-fluoro-phenyl ester]	0.0099
CN(C(=O)Oc1ccc(F)cc1)[C@@H]1CN(C(=O)C2CCOCC2)C[C@@]1(C)c1ccc(Cl)cc1 (racemic) [Example 28, rac-[(3S,4R)-4-(4-Chloro-phenyl)-4-methyl-1-(tetrahydro-pyran-4-carbonyl)-pyrrolidin-3-yl]-methyl-carbamic acid 4-fluoro-phenyl ester]	0.348
CN(C(=O)Oc1ccc(F)cc1)[C@@]1(C)CN(C(=O)C2CCOCC2)C[C@@H]1c1ccc(Cl)cc1 (racemic) [Example 5, rac-[(3R,4S)-4-(4-Chloro-phenyl)-3-methyl-1-(tetrahydro-pyran-4-carbonyl)-pyrrolidin-3-yl]-methyl-carbamic acid 4-fluoro-phenyl ester]	0.0864
CN(C(=O)Oc1ccc(F)cc1)[C@@]1(C)CN(C(=O)C2CCN(C(=O)C3(C)CC3)CC2)C[C@@H]1c1ccc(Cl)cc1 (racemic) [Example 7, rac-{(3R,4S)-4-(4-Chloro-phenyl)-3-methyl-1-[1-(1-methyl-cyclopropanecarbonyl)-piperidine-4-carbonyl]-pyrrolidin-3-yl}-methyl-carbamic acid 4-fluoro-phenyl ester]	0.005
CN(C(=O)Oc1ccc(F)cc1)[C@@]1(C)CN(C(=O)C2CCN(c3ccc(Cl)cn3)CC2)C[C@@H]1c1ccc(Cl)cc1 (racemic) [Example 13, rac-[(3R,4S)-4-(4-Chloro-phenyl)-1-(5′-chloro-3,4,5,6-tetrahydro-2H-[1,2′]bipyridinyl-4-carbonyl)-3-methyl-pyrrolidin-3-yl]-methyl-carbamic acid 4-fluoro-phenyl ester]	0.01
CN(C(=O)Oc1ccc(F)cc1)[C@@]1(C)CN(C(=O)c2ccc(N3CCCCC3=O)cc2)C[C@@H]1c1ccc(Cl)cc1 (racemic) [Example 20, rac-{(3R,4S)-4-(4-Chloro-phenyl)-3-methyl-1-[4-(2-oxo-piperidin-1-yl)-benzoyl]-pyrrolidin-3-yl}-methyl-carbamic acid 4-fluoro-phenyl ester]	0.276
COc1ccc(N2CCC(C(=O)N3C[C@H](c4ccc(Cl)cc4)[C@@](C)(N(C)C(=O)Oc4ccc(F)cc4)C3)CC2)nn1 (racemic) [Example 19, rac-{(3R,4S)-4-(4-Chloro-phenyl)-1-[1-(6-methoxy-pyridazin-3-yl)-piperidine-4-carbonyl]-3-methyl-pyrrolidin-3-yl}-methyl-carbamic acid 4-fluoro-phenyl ester]	0.0129
CC(C)C(=O)N1CCC(C(=O)N2C[C@H](c3ccc(Cl)cc3)[C@@](C)(N(C)C(=O)Oc3ccc(F)cc3)C2)CC1 (racemic) [Example 1, rac-[(3R,4S)-4-(4-Chloro-phenyl)-1-(1-isobutyryl-piperidine-4-carbonyl)-3-methyl-pyrrolidin-3-yl]-methyl-carbamic acid 4-fluoro-phenyl ester]	0.0105
Cc1ccc(N2CCC(C(=O)N3C[C@H](c4ccc(Cl)cc4)[C@@](C)(N(C)C(=O)Oc4ccc(F)cc4)C3)CC2)nc1 (racemic) [Example 8, rac-[(3R,4S)-4-(4-Chloro-phenyl)-3-methyl-1-(5′-methyl-3,4,5,6-tetrahydro-2H-[1,2′]bipyridinyl-4-carbonyl)-pyrrolidin-3-yl]-methyl-carbamic acid 4-fluoro-phenyl ester]	0.013
CC(=O)N1CCC(C(=O)N2C[C@H](c3ccc(Cl)cc3)[C@@](C)(N(C)C(=O)Oc3ccc(F)cc3)C2)CC1 (racemic) [Example 4, rac-[(3R,4S)-1-(1-Acetyl-piperidine-4-carbonyl)-4-(4-chloro-phenyl)-3-methyl-pyrrolidin-3-yl]-methyl-carbamic acid 4-fluoro-phenyl ester]	0.0116
CN(C(=O)Oc1ccc(F)cc1)[C@@]1(C)CN(C(=O)c2ccc(C#N)cc2)C[C@@H]1c1ccc(Cl)cc1 (racemic) [Example 3, rac-[(3R,4S)-4-(4-Chloro-phenyl)-1-(4-cyano-benzoyl)-3-methyl-pyrrolidin-3-yl]-methyl-carbamic acid 4-fluoro-phenyl ester]	0.0678
CN(C(=O)Oc1ccc(F)cc1)[C@@H]1CN(C(=O)C2CCN(c3ccc(C(F)(F)F)cn3)CC2)C[C@@]1(C)c1ccc(Cl)cc1 (racemic) [Example 33, rac-[(3S,4R)-4-(4-Chloro-phenyl)-4-methyl-1-(5′-trifluoromethyl-3,4,5,6-tetrahydro-2H-[1,2′]bipyridinyl-4-carbonyl)-pyrrolidin-3-yl]-methyl-carbamic acid 4-fluoro-phenyl ester]	0.02
CN(C(=O)Oc1ccc(F)cc1)[C@@]1(C)CN(C(=O)C2CCN(c3ccc(C(F)(F)F)cn3)CC2)C[C@@H]1c1ccc(Cl)cc1 (racemic) [Example 15, rac-[(3R,4S)-4-(4-Chloro-phenyl)-3-methyl-1-(5′-trifluoromethyl-3,4,5,6-tetrahydro-2H-[1,2′]bipyridinyl-4-carbonyl)-pyrrolidin-3-yl]-methyl-carbamic acid 4-fluoro-phenyl ester]	0.0115
